≈ marks a conversion by molar mass, not a printed value. Read-outs that look alike come from different tables or passages of the source.

This note sets out measurements from patent US12178790B2, “Antibacterial compound isolated from Psiloxylon mauritianum and its derivatives” (CENTRE NATIONAL DE LA RECHERCHE SCIENTIFIQUE(CNRS), priority 2021, dated 2024).

The subject of data set [1] is Staphylococcus aureus (ATCC 29213). The data set is described as follows: MIC determination (microdilution), S. aureus. In kind it is cell-based. The conditions noted are these: for MIC: Staphylococcus aureus, ATCC29213. The protocol: (§1) The crude extract and pure compounds isolated were tested against human pathogenic microorganisms, including the bacterium Staphylococcus aureus (ATCC 29213), MRSA (ATCC 33591), Candida albicans (ATCC 10213), Trichophyton rubrum (SNB-TR1) and P. aeruginosa ATCC 27853 to screen their antibacterial and antifungal activities. All ATCC strains were purchased from the Pasteur Institute. The clinical isolate was provided by Prof. Philippe Loiseau, Université Paris Sud. The ITS sequence was deposited in the NCBI GenBank database under the registry number KC692746 corresponding to SNB-TR1 strain. The tests were conducted in accordance to the reference protocols from the European Committee on Antimicrobial Susceptibility Testing. The standard microdilutions, ranging from 256 to 0.25 μg/mL were made from stock solutions prepared in DMSO (Sigma-Aldrich, France). The microplates were incubated at 35° C., and MIC values were obtained after 48 h for C. albicans, 24 h for S. aureus and 5 days for T. rubrum. The MIC values reported in Table 2 refer to the lowest concentration preventing visible growth in the wells. Vancomycin (Sigma-Aldrich, Saint-Quentin Fallavier, France) and oxacillin (Sigma-Aldrich, Saint-Quentin Fallavier, France) were used as positive controls for bacteria. Fluconazole (Sigma-Aldrich, Saint-Quentin Fallavier, France) and itraconazole (Sigma-Aldrich, Saint-Quentin Fallavier, France) were used as positive controls for fungi. All assays were conducted in duplicate.

The subject of the next data set is MRSA (ATCC 33591). In words: MIC determination (microdilution), MRSA. Format: cell-based, Staphylococcus aureus. Conditions: for MIC: Staphylococcus aureus, read-out: MIC MRSA ATCC 33591. The procedure:
as §1
(In general: Dilution methods test growth across graded concentrations, often in twofold steps.)

Data set [2] has as its system Candida albicans (ATCC 10213). The data set is described as follows: MIC determination (microdilution), C. albicans. The conditions noted are these: for MIC: Candida albicans, ATCC10213. In kind it is cell-based. The procedure:
as §1

Data set [3] has as its system Trichophyton rubrum (SNB-TR1). The data set is described as follows: MIC determination (microdilution), T. rubrum. Format: cell-based. The conditions noted are these: for MIC: Trichophyton rubrum, 120 h. The protocol: as §1
Data set [4] deals with Human lung fibroblast cells (MRC-5). The data set is described as follows: Cytotoxicity evaluation, MTS assay. In kind it is cell-based. The procedure: (§2) Human lung fibroblast cells (MRC-5) were purchased from ATCC (Rockville, Md., USA) and cultured as recommended. Cell growth inhibition was determined by an MTS assay according to the manufacturer's instructions (Promega, Madison, Wis., USA). The cells were seeded in 96-well plates containing the growth medium. After 24 h of culture, samples were dissolved in DMSO (Sigma-Aldrich, France), and added to the cells (at 1 and 10 μM final concentrations). After 72 h of incubation, the reagent was added, and the absorbance at 490 nm was recorded using a plate reader. Cell viability was evaluated in comparison with untreated control cultures. Docetaxel (Taxotere) was used as positive control (IC50: 0.5 nM). All assays were conducted in triplicate.

The nature of data set [5]: Cytotoxicity evaluation, MTS assay. In kind it is cell-based. The conditions noted are these: human, MRC-5 human lung fibroblast cells, 72 h, read-out: MRC5 Cell Viability. The protocol: as §2
Background: Tetrazolium assays rely on reduction of a dye to a coloured formazan, in cell work by metabolically active cells.

The test system of data set [6] is S. epidermis MSF G + 15 (clinical strain). In words: MIC against Gram-positive bacteria. Format: cell-based.
The next data set relates to SARM NCTC 12493. The data set is described as follows: MIC against Gram-positive bacteria. In kind it is cell-based. The conditions noted are these: Staphylococcus aureus, NCTC12493.
A further data set deals with S. aureus ATCC25923. The data set is described as follows: MIC against Gram-positive bacteria. The conditions noted are these: Staphylococcus aureus. In kind it is cell-based.
Data set [7] has as its system SARM G + 78 (clinical strain). The data set is described as follows: MIC against Gram-positive bacteria. Format: cell-based. Conditions: Staphylococcus aureus. The protocol:
as §1

Data set [8] concerns SARM G + 79 (clinical strain). In words: MIC against Gram-positive bacteria. In kind it is cell-based. The conditions noted are these: Staphylococcus aureus. The procedure: as §1
Data set [9] deals with SARM G + 82 (clinical strain). The data set is described as follows: MIC against Gram-positive bacteria. In kind it is cell-based. The conditions noted are these: Staphylococcus aureus. The procedure: as §1
Data set [10] deals with SARM G + 86 (clinical strain). In words: MIC against Gram-positive bacteria. The conditions noted are these: Staphylococcus aureus. Format: cell-based. The protocol:
as §1

The subject of data set [11] is Bacillus sp. L4 210321 (clinical strain). In words: MIC against Gram-positive bacteria. In kind it is cell-based.
In data set [12] the test system is Corynebacterium sp. L2 220321 (clinical strain). In words: MIC against Gram-positive bacteria. In kind it is cell-based.
Data set [13] deals with Enterococcus faecalis 29212. In words: MIC against Gram-positive bacteria. In kind it is cell-based.
Data set [14] concerns Enterococcus faecium van B (clinical strain). The data set is described as follows: MIC against Gram-positive bacteria. In kind it is cell-based.
For data set [15], the system named is S. epidermis MSF G + 16 (clinical strain). In words: MIC against Gram-positive bacteria. In kind it is cell-based.
In data set [16] the test system is Enterococcus faecium SI299 (clinical strain). In words: MIC against Gram-positive bacteria. In kind it is cell-based.
For data set [17], the system named is Acinetobacter baummanii 19606. In words: MIC against Gram-negative bacteria, alone or in combination with colistin. Format: cell-based. The procedure:
as §1
(§3) Permeabilizers are compounds that weaken the outer membrane by enhance the permeability of bacterial cells to antimicrobial agents. [Farrag, H. A.; Abdallah, N.; Shehata, M. M. K.; Awad, E. M. J Biomed Sci, 2019, 26:69] Colistin a.k.a. polymyxin E were extensively used in clinical practice for Gram-negative organisms, but gradually withdrawn from the market due to reports of significant nephrotoxicity and neurotoxicity. [Mohamed, Y. F., Abou-Shleib, H. M., Khalil, A. M., El-Guink, N. M., & El-Nakeeb, M. A. Braz J Microbiol., 2016, 47, 381-388] In combinaison with various antibiotics, colistin is known to destabilize the outer membrane enhancing the antibacterial activity. In our study, we evaluated a combinaison of colistin at a sub-inhibitory concentration and Aspidin CB. […] (Table 5)

For data set [18], the system named is Escherichia coli WT 25922. The data set is described as above. In kind it is cell-based. The protocol:
as §1, §3

The nature of data set [19]: ABTS radical scavenging (antioxidant) assay. In kind it is biochemical. The conditions noted are these: at 50 μg/ml. An excerpt:
P. mauritianum extracts were investigated for their antioxidant activities with using an ABTS [2,2′-azinobis-(3-ethylbenzothiazoline-6-sulfonate)] assay.

The mark [20] stands for this setting: human pathogenic fungi, in words.
The mark [21] stands for this setting: colistin at sub-inhibitory concentration, in words.

As to `CCCC(=O)C1=C(O)C(Cc2c(O)c(C)c(OC)c(C(=O)CCC)c2O)=C(O)C(C)(C)C1=O` [Compound 1, Aspidin BB], the “MIC S. aureus ATCC 29213” value in [1] (Table 6 and text, 24 h) came out at 2 µg/mL (≈ 4.34 µM). For the same molecule, the “Antibacterial activity against S. aureus” value in data set [1] (in words) was “strongly active”. Moreover, the “MIC MRSA ATCC 33591” value in the data set on MRSA (ATCC 33591) (Table 6 and text) turned out to be 1 µg/mL (≈ 2.17 µM). Also, in the data set on MRSA (ATCC 33591) (in words), the “Antibacterial activity against MRSA” value is recorded as “strongly active”. In addition, the “MIC C. albicans ATCC 10213” value in data set [2] (Table 6, 48 h) was more than 256 µg/mL. Also, the “Antifungal activity against C. albicans” value in data set [2] (setting [20]) was “inactive”. The “MIC T. rubrum SNB-TR1” value in [3] (Table 6, 5 days) is more than 256 µg/mL. Besides, in data set [3] (setting [20]), the “Antifungal activity against T. rubrum” value was “inactive”. The “MRC5 Cell Viability” value in data set [4] (10^−5 M, 72 h) worked out at 86 ± 3%; in data set [4] (10^−6 M, 72 h), 104 ± 1%.

On to `CCCCCC(=O)C1=C(O)C(C)(C)C(O)=C(Cc2c(O)c(C)c(OC)c(C(=O)CCC)c2O)C1=O` [Compound 2, Aspidin CB], for which the “Fold stronger activity of compound 2 vs compound 1 on S. aureus strains” value in data set [1] (S. aureus and MRSA, ratio of MICs) is given as 4-to 8 fold. Further, the MIC (in general, the lowest concentration found to suppress growth) in data set [1] (Table 6 and text, 24 h) is 0.25 µg/mL (≈ 0.512 µM); in the data set on MRSA (ATCC 33591) (Table 6 and text), 0.25 µg/mL (≈ 0.512 µM); in data set [2] (Table 6, 48 h), more than 256 µg/mL; in data set [3] (Table 6, 5 days) it was 256 µg/mL (≈ 524 µM); in data set [6] it was 0.5 µg/mL (≈ 1.02 µM); in the data set with SARM NCTC 12493 it was 0.5 µg/mL (≈ 1.02 µM). Besides, the minimal inhibitory concentration (MIC) in the data set on S. aureus ATCC25923 amounted to 0.5 µg/mL (≈ 1.02 µM); in data set [7], 0.5 µg/mL (≈ 1.02 µM); in [8], 1 µg/mL (≈ 2.05 µM); in data set [9], 0.5 µg/mL (≈ 1.02 µM); in [10], 0.5 µg/mL (≈ 1.02 µM); in data set [11] it was 1 µg/mL (≈ 2.05 µM). In addition, the MIC in data set [12] is 1 µg/mL (≈ 2.05 µM); in data set [13], 8 µg/mL (≈ 16.4 µM); in [14], 0.5 µg/mL (≈ 1.02 µM); in data set [15], 2 µg/mL (≈ 4.09 µM); in data set [16] it was 8 µg/mL (≈ 16.4 µM); in data set [17] (Acinetobacter, 19606, single agent), more than 64 µg/mL. The MIC in data set [18] (Escherichia coli, WT25922, single agent) is more than 64 µg/mL. In addition, the “Fold more potent than vancomycin against MRSA” value with MRSA (ATCC 33591) (ratio of MICs) was 16 fold. The viability (usually a read-out of living cells in per cent, often relative to untreated cells) at 72 h in data set [5] (10^−5 M) was found to be 99 ± 2%; in [5] (10^−6 M), 105 ± 2%. Also, in data set [4] (at 10^−5 M, in words), the “Cytotoxicity in MRC5 cells” value was “no cytotoxicity was observed”. For the same molecule, the “Activity against A. baumanii in combination with colistin vs alone” value in [17] (setting [21]) is recorded as “unambiguously more active”. Besides, the “Activity against E. coli in combination with colistin vs alone” value in data set [18] (setting [21]) is on record as “unambiguously more active”.

With `CC(=O)O[C@@]12CO[C@@H]1C[C@H](O)[C@@]1(C)C(=O)[C@H](O)C3=C(C)[C@@H](OC(=O)[C@H](O)[C@@H](NC(=O)OC(C)(C)C)c4ccccc4)C[C@@](O)([C@@H](OC(=O)c4ccccc4)[C@H]21)C3(C)C` [Docetaxel, reference compound], the half-maximal inhibitory concentration (IC50) (commonly the midpoint of a concentration-inhibition curve) in data set [4] (Homo sapiens, MRC5, positive control, 72 h, read-out: IC50 cell growth inhibition MRC-5) was 500 pM.

`OC(Cn1cncn1)(Cn1cncn1)c1ccc(F)cc1F` [Fluconazole, reference compound]: the MIC in [2] (Table 6, 48 h) was found to be 1 µg/mL (≈ 3.27 µM); in data set [3] (Table 6, 5 days), 4 µg/mL (≈ 13.1 µM).

`CCC(C)n1ncn(-c2ccc(N3CCN(c4ccc(OCC5COC(Cn6cncn6)(c6ccc(Cl)cc6Cl)O5)cc4)CC3)cc2)c1=O` (centres unmarked) [Itraconazole, reference compound]: the MIC is less than 0.5 µg/mL in data set [2] (Table 6, 48 h) and less than 0.5 µg/mL in data set [3] (Table 6, 5 days).

In the case of `Cc1onc(-c2ccccc2)c1C(=O)N[C@@H]1C(=O)N2[C@@H]1SC(C)(C)[C@@H]2C(=O)O` [Oxacillin, reference compound], the MIC in [1] (Table 6 and text, 24 h) stood at 0.25 µg/mL (≈ 0.623 µM).

Take `Cc1c(C)c2c(c(C)c1O)CCC(C)(C(=O)O)O2` (centres unmarked) [Trolox]: the “% ABTS inhibition” value in data set [19] worked out at 98.0%.

Take `CN[C@H](CC(C)C)C(=O)N[C@H]1C(=O)N[C@@H](CC(N)=O)C(=O)N[C@H]2C(=O)N[C@H]3C(=O)N[C@H](C(=O)N[C@H](C(=O)O)c4cc(O)cc(O)c4-c4cc3ccc4O)[C@H](O)c3ccc(c(Cl)c3)Oc3cc2cc(c3O[C@@H]2O[C@H](CO)[C@@H](O)[C@H](O)[C@H]2O[C@H]2C[C@](C)(N)[C@H](O)[C@H](C)O2)Oc2ccc(cc2Cl)[C@H]1O` [Vancomycin, reference compound]: the MIC in the data set with MRSA (ATCC 33591) came to 4 µg/mL (≈ 2.76 µM).

As to Colistin [reference compound], the “MIC Acinetobacter baummanii 19606” value in [17] (single agent) was 4 µg/mL. In addition, in data set [18] (single agent), the “MIC Escherichia coli WT 25922” value worked out at 1 µg/mL.

For the molecule Tocopherol, the “% ABTS inhibition” value in [19] was found to be 97.6%.
